This is an account of results in article PMC11040934, “PI3Kγδ inhibition suppresses key disease features in a rat model of asthma” (Respiratory Research, 2024).

Common to all, as to format: in vivo, Brown Norway rat
In test [1] the test system is Brown Norway rats, OVA sensitised and challenged. The test is described as follows: Rat model of allergic asthma: BAL cellular inflammation. The following applies: BAL 24 hrs after OVA challenge; i.t. dosing. How it is done: (§1) Male, adult, Brown Norway rats were obtained from Charles River Germany at a body weight range of 250-300 g. Animals were housed in temperature controlled individually ventilated cages in groups of 4 with food and water provided ad libitum. Animals underwent acclimatisation for at least 1 week prior to experimentation. Experiments were performed in accordance with the UK Home Office guidelines for animal welfare based on the Animals (Scientific Procedures) Act of 1986 and the ARRIVE guidelines (Fig. E2).
Initially a time course study was performed, followed by a characterisation study with compound & clinical comparator. For both studies, rats were sensitised on day 0, 14 and 21 by an intraperitoneal (i.p.) injection of 4 mL/kg (1 mL/rat) of ovalbumin (OVA;100 μg/rat) in Imject™ Alum (20 mg/rat aluminium hydroxide and 20 mg/rat magnesium hydroxide) or sham sensitised (Saline [Sal] in Imject™ Alum). On day 28 rats were challenged with 1% (w/v) aerosolised OVA in isotonic saline, or sham challenged with isotonic saline (30 mins).
Following blood collection, rats underwent tracheostomy and were cannulated. Rats were lavaged and bronchoalveolar lavage (BAL) fluid was collected (2 × 3 mL RPMI, 30 secs, 70% vol. retained). Slides were prepared using 100 μL of neat BAL, centrifuged (700 rpm, 5 mins, RT, low acceleration; Cytospin 2, Shandon, Runcorn, UK). 800 μL of neat BAL was collected and centrifuged (800×g, 10 mins, 4 °C). Supernatant was collected and stored (− 80 °C), and cell pellet was resuspended (200 μL, RPMI), total leukocytes were attained using a Sysmex XP-300 automated cell counter (Sysmex Ltd., Milton Keynes, UK). Remaining BAL was centrifuged (800×g, 10 mins, 4 °C) and supernatant collected and stored (− 80 °C).
BAL cytospin slides were placed in an automated stainer (Hematek 2000, Ames. Co., USA) and stained with a Modified-Wright stain (Siemens, Germany). Differential cell counts using a light microscope were performed based on morphological criteria were performed to determine percentages of macrophages/monocytes, lymphocytes, neutrophils & eosinophils. Total numbers of each distinct cell type were determined based on total leukocyte numbers.

Test [2] shares this test system. Put plainly: Rat model of allergic asthma: late asthmatic response (Penh, whole body plethysmography). The conditions noted are these: 1-6 hrs after OVA challenge; i.t. dosing. As to the method: as §1
Initially a time course study was performed, followed by a characterisation study with compound & clinical comparator. For both studies, rats were sensitised on day 0, 14 and 21 by an intraperitoneal (i.p.) injection of 4 mL/kg (1 mL/rat) of ovalbumin (OVA;100 μg/rat) in Imject™ Alum (20 mg/rat aluminium hydroxide and 20 mg/rat magnesium hydroxide) or sham sensitised (Saline [Sal] in Imject™ Alum). […]
In both studies, 30 mins post-challenge, rats were placed unrestrained in Perspex plethysmographs connected to bias flow pumps (DSI Europe Ltd), with food and water ad libitum. 55 mins post-challenge, a five mins baseline recording was taken and the average penh and area under the curve (AUC) was recorded at 10 mins intervals for a total duration of 5 hrs and was used for analysis (DSI Europe Ltd).

The subject of a further test is PI3K pathway (pAkt). The test is described as follows: Rat model of allergic asthma: lung tissue pAkt (T308), target engagement. The following applies: i.t. 1 hr before OVA challenge; AZD8154 0.02, 0.1, 0.3 mg/kg, budesonide 3 mg/kg; lung 2 hrs after challenge. As to the method:
as §1
Initially a time course study was performed, followed by a characterisation study with compound & clinical comparator. […]
5 μL of supernatant (1:50 dilution) was taken for Bradford Assay which was run according to manufacturers’ instructions (BioRad, USA). […] Absorbance was measured using a spectrophotometer and total protein values interpolated to standard curve (595 nm; Spectromax, UK).
10 μg of protein from lung tissue extract were utilized in pAkt (T308); pSTAT3, pSTAT4 & STAT5a, b (Phospho-STAT Panel kit) MSD Assay plates (Meso Scale Delivery, USA) and run according to manufacturers’ instructions. Arbitrary electrochemiluminescence signals were read, the blank subtracted and values determined in each plate using a MSD S-Plex plate reader (Meso Scale Delivery, USA).

Regarding `CCCC1O[C@@H]2C[C@H]3[C@@H]4CCC5=CC(=O)C=C[C@]5(C)[C@H]4[C@@H](O)C[C@]3(C)[C@]2(C(=O)CO)O1` (some centres unmarked) [budesonide], in test [1], the BAL eosinophils entry is on record as “reversing these key features to basal levels”, the BAL neutrophils result is reported as “reversing these key features to basal levels” and the BAL total leukocytes result is on record as “reversing these key features to basal levels”. The “LAR (Penh, AUC)” value in test [2] is given as “inhibiting the lung function change”. In the test on PI3K pathway (pAkt), the “lung tissue pAkt levels” value is recorded as “dramatic inhibition”.
